“Also recorded” adds a separate entry of the source.
Key:
[1] = tested on: B-lymphoid leukemia and lymphoma cells; experiment: Cell viability assay (Cell Titer Glo 2.0) with GSK3β inhibitors; format: cell-based, human
Experimental: Forty thousand patient-derived pre-B ALL cells or twenty thousand leukemia/lymphoma cell lines or ten thousand colon/lung cancer cells were seed in a volume of 80 μl in complete growth medium on 96-well plate. GSK3β3 inhibitors were added at the indicated concentration in a total volume of 100 μl. After treatment for 3 days, Cell Titer Glo 2.0 assays (Promega) were performed according to the manufacturer's instructions. Relative viability was calculated by measuring the luminescence value and normalizing it to baseline values of untreated cells.
(§1) Data are shown as mean±s.d. unless stated. Statistical analysis was performed by GraphPad Prism 7 (GraphPad Software Inc.) using unpaired two-tailed t test or log-rank test as indicated in figure legends. Significance was considered at P<0.05. Kaplan-Meier survival analysis was used to estimate OS with GraphPad Prism 7. The investigators were not blinded to allocation during experiments and outcome assessment. Experiments were repeated to ensure reproducibility of the observations.

[2] = tested on: β-catenin and MYC protein levels in B-ALL cells; experiment: Western blot of β-catenin and MYC after GSK3β inhibitor treatment; format: cell-based, human
Experimental: (§2) Cells were washed twice with ice-cold PBS and were lysed in CelLytic buffer (Sigma-Aldrich) supplemented with 1% protease inhibitor cocktail (Roche Diagnostics), 1% phosphatase inhibitor cocktail (EMD Millipore) and 1 mM PMSF (CST) on ice. 10-20 μg of cell lysates were separated on precast gels (Bio-Rad) and transferred on nitrocellulose membranes (Bio-Rad). After blocking for an hour in TBS-T with 2% BSA, membranes were probed with the appropriate primary antibodies listed in Table 6. Membranes were incubated with alkaline-phosphatase conjugated secondary antibodies (Invitrogen) and analyzed with Chemi Doc™ MP Imaging System (Bio-Rad). For fractionation experiment Nuclear and Cytoplasmic Extraction Reagent (Thermo Scientific) was used according to manufacturer's instructions.

[3] = tested on: refractory B-ALL PDX (LAX2); experiment: In vivo treatment of NSG mice bearing refractory B-ALL patient-derived xenografts
Experimental: Patient derived BCR-ABL1 ALL were labeled with firefly luciferase and selected by 25 μg ml^−1 blasticidin. 1 million PDX cells pre-treated with LY2090314 (10 μg ml^−1) or vehicle control for four hours. Cells were washed twice and then injected via the tail vein into sublethally irradiated (190 cGy) NSG mice (8-12 week-old, female). LY2090314 or vehicle control (dissolved in 5% DMSO, 45% PEG300 and PBS) were administered intraperitoneally at dose of 12.5 mg kg^−1 body weight twice every day for 20 times. The in vivo expansion and leukemia burden were monitored by luciferase bioimaging (Lago X; Accela). Briefly, D-luciferin (Promega) was dissolved in PBS and injected intraperitoneally at a dose of 2.5 mg per mouse 15 min before measuring luminescent. All mice were anesthetized by 5% isoflurane and continued during detection of light emission with 2% isoflurane introduced through a nose cone. When the mice get the signs of leukemia (hunched back, weight loss and inability to move), they were euthanized. Bone marrow and spleen were collected and flow cytometry analysis was performed to check leukemia engraftment.
as §1

β-catenin = experiment: Western blot of colonies from MDS-derived CD34+ GFP+ progenitor cells; format: cell-based, human; conditions: large colonies after 12 days
Experimental: as §2
For colony forming assays, 10,000 mouse BCR-ABL1 or NRAS^G12D were grown on MethoCult medium (M3231 or M3630 (with IL-7) respectively, StemCell Technologies) in 3-cm diameter dishes with an extra dish filled with water to prevent evaporation. […] For all colony forming experiments, colonies were imaged and counted using GelCount (Oxford Optronix) and 7-14 days after plating.
Non-targeted and targeted CD34^+ GFP^+ cells were stimulated in the presence of human cytokines and colony forming assays were performed. Large colonies were analyzed by Western blot after 12 days.

autoreactive B-cells = experiment: Genetic mouse models for SLE and RA treated with GSK3β inhibitor; format: in vivo; conditions: 4 injections i.p., 20 mg/kg, once full-blown disease has developed
Description: β-catenin activation in mouse models for SLE. As mouse models for SLE, lupus-prone B6.Sle1.Yaa mice will be studied, to be crossed on the B6Mb1^+/Crex Ctnnb1^ex3fl/fl model for B-cell-specific accumulation of β-catenin (FIG. 25). B6.Sle1.Yaa mice only require one backcross then intercross for Sle1 homozygosity, a large locus on chromosome 1 that promotes lupus susceptibility. One caveat of the B6.Sle1.Yaa model is that these are male mice, by contrast to female-dominant lupus in patients, since disease penetrance requires a second copy of Tlr7 on the Y chromosome (the Yaa allele). The B6.Sle1.Yaa faithfully replicates these outcomes as observed in other lupus-prone strains, including female predominant strains such as NZB/WF1 and MRL/1pr, or single gene models.
β-catenin activation in mouse models for RA. For collagen-induced arthritis (CIA) as a model for RA, disease is modeled on a B6 background with the B6 Mbl^+/Cre×Ctnnb1^ex3fl/fl allele using chicken type II collagen as an immunogen. […] Both models of inflammatory synovitis have been established, CIA induced in DBA1 and B6. The colonies are readily available for analyzing outcomes in these animals, including detailed analysis of B- and T-cell responses, and degree of synovitis and joint damage. […]

[4] = tested on: B-lymphoid leukemia and lymphoma cells; experiment: Cell viability assay (Cell Titer Glo 2.0) with GSK3β inhibitors; format: cell-based, human; remark: listed apart in the source
[5] = cited from earlier work

Structure (SMILES): O=C1NC(=O)C(c2cnc3ccccn23)=C1c1cn2c3c(cc(F)cc13)CN(C(=O)N1CCCCC1)CC2 [LY2090314]
- responses in B-ALL PDX with vs without IKZF1-deletion ([1]; 10 patient-derived xenografts, 5 with IKZF1-deletion): no significant differences
- drug-responses in a larger panel of cell lines and PDX ([1]; B-ALL, B-cell lymphoma, myeloid leukemia, colon, lung cancer, 0 up to 200 nM, 3 days): profound responses in B-ALL and B-cell lymphoma cells in the absence of significant effects on myeloid and epithelial tumor cells
- selective cell death / drug response ([1]; B-lymphoid vs myeloid and epithelial cells (PDX2, BV173, LAX2 vs THP1, SW620, H82), 3 days): induced cell death at low nanomolar concentrations selectively in B-lymphoid but not myeloid and epithelial cells; also recorded: B-cell selective activity at low nanomolar concentrations
- responses in B-ALL PDX from chemotherapy-sensitive vs refractory/relapsed patients ([1]; FIG. 7D): did not affect responses
- sensitivity of B-ALL cells with deletion of CTNNB1 ([1]; human B-ALL (BV173) gCTNNB1 vs gNT clones, 3 days): near-complete resistance
- β-catenin accumulation and MYC suppression ([2]; B-ALL (PDX2) cells, 16 hours, FIGS. 7A, 7C, 18C): induced massive accumulation of β-catenin in parallel with acute suppression of MYC
- MYC suppression in B-ALL cells with deletion of CTNNB1 ([2]; BV173, 20 nM, 16 hours): prevented suppression of MYC
- β-catenin accumulation and MYC suppression in B-cell vs colon and lung cell lines ([2]; pre-B cell and mature B-cell lines, colon and lung cancer cell lines, FIG. 28A): induced rapid accumulation of β-catenin protein and suppression of MYC in Ikaros-expressing B-cell lines but not colon and lung cell lines
- leukemia burden (bioluminescence imaging) ([3]; NSG mice with refractory B-ALL PDX, intraperitoneal, single agent vs vehicle): substantially reduced leukemia burden
- overall survival ([3]; NSG mice with refractory B-ALL PDX, intraperitoneal, P=6.5E-05, n=9): significantly extended overall survival
- leukemia-initiation potential ([3]; limiting doses (100-2,500 cells) of B-ALL PDX in transplant recipient mice): reduced the leukemia-initiation potential
- weight loss / dose-limiting toxicity ([3]; treated NSG mice): did not show significant weight loss or other dose-limiting toxicity
- β-catenin accumulation in non-targeted control colonies (β-catenin): induced accumulation of β-catenin in all 7 non-targeted control colonies
- disease outcome in established SLE and RA (autoreactive B-cells): induce disease remission
- IC50 in epithelial and myeloid cancer cells relative to B-ALL ([4]; 343 epithelial cancer cell lines (Prism Drug Repurposing Secondary Screen) vs B-ALL cell lines): 236 fold
- IC50 in epithelial and myeloid cancer cells relative to B-cell lymphoma ([4]; 343 epithelial cancer cell lines (Prism Drug Repurposing Secondary Screen) vs B-cell lymphoma cell lines): 92 fold
- adverse effects in clinical trials ([5]; Cmax micromolar): lymphopenia
- Outcome: clinical responses ([5]; Phase 1 and 2): No clinical responses
- Outcome: safety ([5]; Phase 1 and 2): Phase 1 and 2, favorable safety
- Outcome: MTD ([5]; i.v.): 80 mg
- safety and tolerability / PK/PD profile in clinical trials ([5]; micromolar plasma concentrations (Cmax)): demonstrated safety and tolerability at micromolar plasma concentrations
